“Also recorded” adds a separate entry of the source.
Experiments:
Assay type in all cases: cell-based, human
A549 cells [1] = assay: DMR modulation of marker-induced responses (two-step assay) in A549 cells; conditions: for modulation of the pinacidil response in A549 cells: compound pretreatment ~1 hr (10 micromolar), then pinacidil 10 micromolar
Description: The index was generated after normalizing each marker-induced DMR signal in the presence of the inhibitor to its corresponding signal in the absence of the inhibitor. The percentage of modulation for each marker by the inhibitor was plotted as a function of the marker. As shown from left to right in a sequential order, the DMR events used for the basis of the modulation percentage calculation are: the N-DMR (50 min after stimulation) for pinacidil in A549, the P-DMR (50 min after stimulation) for forskolin in A549, the early P-DMR event (˜10 min after histamine stimulation) and the late P-DMR event (˜30 min after histamine stimulation) for histamine in A549, and the early P-DMR event (˜5 min after EGF stimulation) and the subsequent N-DMR event (˜30 min after EGF stimulation) for EGF in A431 cells. In all cases, the amplitudes of respective DMR events were used as the basis to calculate the percentages of modulation by the PI3K inhibitors. The same procedure was used to generate FIGS. 8 to 14.
(§1) Cells were typically grown using ˜1 to 2×10^4 cells per well at passage 3 to 15 suspended in 50 μl of the corresponding culture medium in the biosensor microplate, and were cultured at 37° C. under air/5% CO2 for ˜1 day. Except for A431 which underwent one day culture followed by one starvation in serum free medium, all other cells were directly assayed without starvation. The confluency for all cells at the time of assays was ˜95% to 100%.
(§2) For biosensor cellular assays, molecule solutions were made by diluting the stored concentrated solutions with the HBSS (1× Hanks balanced salt solution, plus 20 mM Hepes, pH 7.1), and transferred into a 384 well polypropylene molecule storage plate to prepare a molecule source plate. Both molecule and marker source plates were made separately when a two-step assay was performed. In parallel, the cells were washed twice with the HBSS and maintained in 30 μl of the HBSS to prepare a cell assay plate. Both the cell assay plate and the molecule and marker source plate(s) were then incubated in the hotel of the reader system. After ˜1 hr of incubation the baseline wavelengths of all biosensors in the cell assay microplate were recorded and normalized to zero. Afterwards, a 2 to 10 minute continuous recording was carried out to establish a baseline, and to ensure that the cells reached a steady state. Cellular responses were then triggered by pipetting 10 μl of the marker solutions into the cell assay plate using the on-board liquid handler.
To study the influence of molecules on a marker-induced response, a second stimulation with the marker at a fixed dose (typically at EC80 or EC100) was applied. The resonant wavelengths of all biosensors in the microplate were normalized again to establish a second baseline, right before the second stimulation. The two stimulations were usually separated by ˜1 hr.
(§3) All studies were carried out at a controlled temperature (28° C.). At least two independent sets of experiments, each with at least three replicates, were performed.

HepG2 cells [2] = assay: DMR modulation of the ODN2006-induced response in HepG2 cells; conditions: inhibitor 10 micromolar, ODN2006 500 nM
Description: as §1
as §2, with “Cellular responses were then triggered by pipetting 10 μl of the marker solutions into the cell assay plate using the on-board liquid handler.” left out

HT-29 cells = assay: Label-free RWG biosensor DMR assay, agonism mode, HT-29 cells; conditions: primary profile
Description: as §1
(§4) Epic® beta version wavelength interrogation system (Corning Inc., Corning, N.Y.) was used for whole cell sensing. This system consists of a temperature-control unit, an optical detection unit, and an on-board liquid handling unit with robotics. The detection unit is centered on integrated fiber optics, and enables kinetic measures of cellular responses with a time interval of ˜15 sec.
(§5) For biosensor cellular assays, molecule solutions were made by diluting the stored concentrated solutions with the HBSS (1× Hanks balanced salt solution, plus 20 mM Hepes, pH 7.1), and transferred into a 384 well polypropylene molecule storage plate to prepare a molecule source plate. […] Both the cell assay plate and the molecule and marker source plate(s) were then incubated in the hotel of the reader system. After ˜1 hr of incubation the baseline wavelengths of all biosensors in the cell assay microplate were recorded and normalized to zero. […]

HepG2 cells [3] = assay: Label-free RWG biosensor DMR assay, agonism mode, HepG2 cells; conditions: primary profile
Description: as §1, §4, §5

A549 cells [4] = assay: Desensitization of pretreated A549 cells to stimulation with ROCK inhibitor Y-27632; conditions: pretreatment 10 micromolar ~1 hour, then Y-27632 at EC100 (10 micromolar)
Source text: FIG. 19 The optical biosensor DMR signals of human lung cancer cell line A549 in response to a well-known Rho kinase inhibitor […] (10 micromolar) in the absence (“buffer”) and presence of two compounds (the Rho kinase inhibitor Y27632, and another Rho kinase inhibitor “compound”). Either of these two inhibitors at 10 micromolar was used to pretreat the A549 cells for ˜1 hr, before the stimulation with Y27632. The desensitization of cells to the second stimulation with Y27632 is an indicator that the compound used for the pretreatment of the cells is a Rho kinase inhibitor.
For biosensor cellular assays, molecule solutions were made by diluting the stored concentrated solutions with the HBSS (1× Hanks balanced salt solution, plus 20 mM Hepes, pH 7.1), and transferred into a 384 well polypropylene molecule storage plate to prepare a molecule source plate. Both molecule and marker source plates were made separately when a two-step assay was performed. In parallel, the cells were washed twice with the HBSS and maintained in 30 μl of the HBSS to prepare a cell assay plate. Both the cell assay plate and the molecule and marker source plate(s) were then incubated in the hotel of the reader system. After ˜1 hr of incubation the baseline wavelengths of all biosensors in the cell assay microplate were recorded and normalized to zero. […]

A549 cells [5] = assay: Label-free RWG (Epic) biosensor DMR assay, agonism mode, A549 cells; conditions: primary profile
Description: as §1, §4, §2, §3

C[C@@H](N)[C@H]1CC[C@H](C(=O)Nc2ccncc2)CC1 [Y-27632]
modulation of the pinacidil response in A549 cells (A549 cells [1]): complete or significant attenuation; also recorded: attenuated
modulation of the pinacidil response in A549 cells (A549 cells [1]; listed as Y027632): dose-dependently attenuate
modulation of the pinacidil response in A549 cells (A549 cells [1]; listed as Y27632): fully attenuated; also recorded: almost completely attenuated
modulation of the forskolin response (P-DMR) in A549 cells (A549 cells [1]; inhibitor 10 micromolar, forskolin 16 micromolar): potentiated
modulation of the histamine response (early and late P-DMR) in A549 cells (A549 cells [1]; inhibitor 10 micromolar, histamine 10 micromolar): potentiated
modulation of the PMA response in A549 cells (A549 cells [1]; pretreatment 10 micromolar): potentiated
modulation of the SLIGKV response in A549 cells (A549 cells [1]; pretreatment 10 micromolar): potentiated
modulation of the poly(IC) response in A549 cells (A549 cells [1]; pretreatment 10 micromolar): potentiated
modulation of the ODN2006 DMR signal in HepG2 cells (HepG2 cells [2]): potentiated
DMR (biosensor) signal of the compound in HT-29 cells (HT-29 cells): detectable, and dose-dependent biosensor signals
DMR (biosensor) signal of the compound in HepG2 cells (HepG2 cells [3]): net-zero DMR signal
desensitization of A549 cells to second stimulation with Y-27632 (A549 cells [4]): significantly caused the cells desensitize
DMR (biosensor) signal of the compound in A549 cells (A549 cells [5]): detectable, and dose-dependent biosensor signals; also recorded: characteristic negative DMR signal

Reference: patent US20120289432A1, “PI3K MODULATORS, RHO KINASE MODULATORS AND METHODS OF IDENTIFYING AND USING SAME” (Corning Incorporated, priority 2009, published 2012)
